Source: US20240262801A1, “COMPOUNDS HAVING 5-(2-FLUORO-6-HYDROXYPHENYL)-1,2,5-THIADIAZOLIDIN-3-ONE 1,1-DIOXIDE AS INHIBITORS OF PROTEIN KINASE PHOSPHATASE ENZYMES” (Ness Therapeutics, Inc., priority 2021, published 2024)
Like-named read-outs stand apart in the source and are kept apart here.

Columns and labels:
GST-tagged PTPN2 protein = target: T1, GST-tagged PTPN2 protein (Homo sapiens, UniProt P17706); assay: Primary assay of PTPN2 enzymatic activity inhibition (DiFMUP fluorescence); format: biochemical; conditions: DiFMUP substrate 2 μM, 60 min at RT
T1 construct: purchased ActiveMotif 31592
T1 sequence (P17706 with tags, fused parts or gaps): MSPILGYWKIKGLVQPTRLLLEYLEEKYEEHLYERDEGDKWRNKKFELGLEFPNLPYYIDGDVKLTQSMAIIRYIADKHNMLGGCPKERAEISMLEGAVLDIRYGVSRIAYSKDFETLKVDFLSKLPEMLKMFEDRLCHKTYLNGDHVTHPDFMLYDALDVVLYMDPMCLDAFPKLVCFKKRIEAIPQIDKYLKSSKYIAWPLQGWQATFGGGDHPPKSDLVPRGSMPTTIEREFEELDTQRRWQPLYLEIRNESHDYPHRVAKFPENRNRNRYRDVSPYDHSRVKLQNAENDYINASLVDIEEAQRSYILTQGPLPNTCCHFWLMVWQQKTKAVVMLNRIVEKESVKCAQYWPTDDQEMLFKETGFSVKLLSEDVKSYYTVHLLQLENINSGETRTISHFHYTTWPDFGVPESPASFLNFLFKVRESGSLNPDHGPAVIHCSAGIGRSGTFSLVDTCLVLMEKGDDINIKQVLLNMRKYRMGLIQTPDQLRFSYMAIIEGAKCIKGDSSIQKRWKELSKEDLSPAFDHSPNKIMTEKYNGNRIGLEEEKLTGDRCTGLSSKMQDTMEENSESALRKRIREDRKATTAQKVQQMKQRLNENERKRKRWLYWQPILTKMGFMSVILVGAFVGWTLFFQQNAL
In short: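 Enzyme at 0.004 ng/μL final in 50 mM HEPES pH 7.2-7.4, 2 mM EDTA, 100 mM NaCl, BSA, 6 mM DTT; compounds preincubated 10 min at RT. DiFMUP added at 2 μM final, 60 min at RT, fluorescence read at ex 360/em 450 nm. IC50 calculated from % inhibition.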

[1] = test system: B16F10 mouse melanoma cells; assay: Tumor cells B16F10 cellular growth IFNγ-induced inhibition assay (CellTiter-Glo); format: cell-based; conditions: for IC50: B16-F10, 72 h, 3 days incubation; for inhibition at 100 µM: B16-F10, B16F10, 100 μM compound; for inhibition at 40 µM: B16-F10, B16F10, 40 μM compound
In short: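 Cells were seeded at 500/well in DMEM + 10% FBS and allowed to adhere overnight at 37° C, 5% CO2. Compounds at 1× final were added via medium with or without IFNγ (5 ng/ml in the dilution medium). After 3 days, CellTiter-Glo luminescence gave % growth inhibition versus the DMSO/IFNγ control, from which IC50 was derived.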

[2] = B16F10, + IFNγ, read-out: IC50 + IFNγ
[3] = B16F10, no IFNγ, read-out: IC50 no IFNγ
[4] = + IFNγ, read-out: % Growth Inhibition at 100 μM + IFNγ
[5] = no IFNγ, read-out: % Growth Inhibition at 100 μM no IFNγ

| SMILES | IC50 (GST-tagged PTPN2 protein) [nM] | IC50 [1, 2] [µM] | IC50 [1, 3] [µM] | inhibition at 100 µM [1, 4] [%] | inhibition at 100 µM [1, 5] [%] | inhibition at 40 µM ([1]; + IFNγ, read-out: % Growth Inhibition + IFNγ @ 40 μM) [%] | inhibition at 40 µM ([1]; no IFNγ, read-out: % Growth Inhibition no IFNγ @ 40 μM) [%] |
| --- | --- | --- | --- | --- | --- | --- | --- |
| COc1ccc(C(=O)Nc2cc(O)c(N3CC(=O)NS3(=O)=O)c(F)c2)cc1 [Example 15, N-[4-(1,1-dioxido-4-oxo-1,2,5-thiadiazolidin-2-yl)-3-fluoro-5-hydroxyphenyl]-4-methoxybenzamide] | 100 to 500 | 10 to 50 | 10 to 50 | – | – | 10 to 50 | 10 to 50 |
| COc1ccc(S(=O)(=O)Nc2cc(O)c(N3CC(=O)NS3(=O)=O)c(F)c2)cc1 [Example 25, N-[4-(1,1-dioxido-4-oxo-1,2,5-thiadiazolidin-2-yl)-3-fluoro-5-hydroxyphenyl]-4-methoxybenzenesulfonamide] | 10 to 50 | 10 to 50 | ≥ 100 | 50 to 75 | 10 to 50 | – | – |
| CCOc1ccccc1-c1cc(O)c(N2CC(=O)NS2(=O)=O)c(F)c1 [Example 5, 5-(2′-ethoxy-3-fluoro-5-hydroxybiphenyl-4-yl)-1,2,5-thiadiazolidin-3-one 1,1-dioxide] | 100 to 500 | ≥ 100 | ≥ 100 | 50 to 75 | 10 to 50 | – | – |
| COc1cccc(-c2cc(O)c(N3CC(=O)NS3(=O)=O)c(F)c2)c1 [Example 1, 5-(3-fluoro-5-hydroxy-3′-methoxybiphenyl-4-yl)-1,2,5-thiadiazolidin-3-one 1,1-dioxide] | 100 to 500 | ≥ 100 | ≥ 100 | 10 to 50 | 10 to 50 | – | – |

Continued, in another order:

| IC50 (GST-tagged PTPN2 protein) [nM] | IC50 [1, 2] [µM] | IC50 [1, 3] [µM] | SMILES | inhibition at 100 µM [1, 4] [%] | inhibition at 100 µM [1, 5] [%] | inhibition at 40 µM ([1]; + IFNγ, read-out: % Growth Inhibition + IFNγ @ 40 μM) [%] | inhibition at 40 µM ([1]; no IFNγ, read-out: % Growth Inhibition no IFNγ @ 40 μM) [%] |
| --- | --- | --- | --- | --- | --- | --- | --- |
| 10 to 50 | ≥ 100 | ≥ 100 | CC(C)(C)OC(=O)N1CCC(NC(=O)Nc2cc(O)c(N3CC(=O)NS3(=O)=O)c(F)c2)CC1 [Example 98, tert-butyl 4-[[3-fluoro-5-hydroxy-4-(1,1,4-trioxo-1,2,5-thiadiazolidin-2-yl)phenyl]carbamoyl-amino]piperidine-1-carboxylate] | 10 to 50 | 10 to 50 | – | – |
| < 5 | 50 to 100 | ≥ 100 | Cc1ccc(NC(=O)Nc2cc(O)c(N3CC(=O)NS3(=O)=O)c(F)c2)cc1 [Example 36, 1-[4-(1,1-dioxido-4-oxo-1,2,5-thiadiazolidin-2-yl)-3-fluoro-5-hydroxyphenyl]-3-(4-methylphenyl)urea] | 50 to 75 | 10 to 50 | – | – |
| < 5 | ≥ 100 | ≥ 100 | O=C1CN(c2c(O)cc(NC(=O)NC3CCN(S(=O)(=O)c4ccccc4Cl)CC3)cc2F)S(=O)(=O)N1 [Example 51, 1-{1-[(2-chlorophenyl)sulfonyl]piperidin-4-yl}-3-[4-(1,1-dioxido-4-oxo-1,2,5-thiadiazolidin-2-yl)-3-fluoro-5-hydroxyphenyl]urea] | 10 to 50 | 10 to 50 | – | – |
| < 5 | 5 to 10 | ≥ 100 | O=C1CN(c2c(O)cc(NC(=O)NC3CCCNC3)cc2F)S(=O)(=O)N1 (centres unmarked) [Example 104, 1-[3-fluoro-5-hydroxy-4-(1,1,4-trioxo-1,2,5-thiadiazolidin-2-yl)phenyl]-3-(3-piperidyl)urea] | 75 to 100 | 10 to 50 | – | – |
| 100 to 500 | 50 to 100 | ≥ 100 | CCCCS(=O)(=O)Nc1cc(O)c(N2CC(=O)NS2(=O)=O)c(F)c1 [Example 28, N-[4-(1,1-dioxido-4-oxo-1,2,5-thiadiazolidin-2-yl)-3-fluoro-5-hydroxyphenyl]butane-1-sulfonamide] | 50 to 75 | 10 to 50 | – | – |
| 5 to 10 | < 5 | ≥ 100 | CC(C)CCNC(=O)Nc1cc(O)c(N2CC(=O)NS2(=O)=O)c(F)c1 [Example 62, 1-[4-(1,1-dioxido-4-oxo-1,2,5-thiadiazolidin-2-yl)-3-fluoro-5-hydroxyphenyl]-3-(3-methylbutyl)urea] | 75 to 100 | 10 to 50 | – | – |
